Measurements from ChEMBL document CHEMBL1255553, “Unusual antimalarial meroditerpenes from tropical red macroalgae” (Bioorg Med Chem Lett, 2010).
pIC50: −log10 of the molar value. Values after ≈ are worked out from the molar mass of the structure shown.

System: Mycobacterium tuberculosis
Experiment: Antimicrobial activity against vancomycin-resistant Mycobacterium tuberculosis
Type: functional, organism-based

| Structure (SMILES) | MIC [µM] | pIC50 |
| --- | --- | --- |
| CC1=C2Cc3cc(ccc3O)C(=O)O[C@H](C(C)(C)Br)CC[C@](C)(O)[C@H](Br)CC[C@]2(C)[C@@H](Br)CC1 | 11 (≈ 7.32 µg/mL) |  |
| CC1=C2Cc3cc(ccc3O)C(=O)O[C@H](C(C)(C)O)CC[C@]3(C)O[C@H]3C/C=C(\C)C2CC1 (some centres undefined) | > 100 |  |
| Cc1cc(O)cc(CC[C@](C)(O)CCC[C@H](C)CCC[C@H](C)CCCC(C)C)c1O |  | < 4.00 |
| CC(C)=CCC[C@@](C)(O)[C@@H]1CC/C(C)=C/CC/C(C)=C/Cc2cc(ccc2O)C(=O)O1 [CALLOPHYCOLIDE A] | 12 (≈ 5.12 µg/mL) |  |
